# Reference: patent publication US20050009902A1, “Remedies for pruritus” (priority 2001, published 2005)
# Experiments:
# Type in all cases: in vivo, guinea pig
# histamine-induced models = assay: Ocular pruritus inhibition activity to histamine-induced models; conditions: for Number of eye scratchings: 10 μL/one eye, average, 12 eyes, control 22.8; for Number of eye scratchings / Eye scratching inhibition rate: 30 minutes after 1.0% histamine; for Eye scratching inhibition rate: vs physiological saline control
# Experimental: Palmidrol was suspended in a physiological saline at a concentration of 0.1% or 0.5%(w/v), and the resulting suspension was instilled into both eyes of a 5-week-old male Hartley guinea pig in 10 μL/one eye. After 10 minutes, the palmidrol suspension at the same concentration was also instilled thereinto (twice in total). A physiological saline was used as a control.
# After 5 minutes from the second instilling of palmidrol, a physiological saline containing 1.0% (w/v) histamine was instilled into both eyes of the guinea pig in 10 μL/one eye to induce eye scratching action.
# The behavior of the guinea pig after administering histamine was videotaped, and the ocular pruritus was evaluated on each eye by counting actions of scratching the eye with the hind foot. The average value of the number of eye scratchings for 30 minutes after administering histamine and the eye scratching inhibition rate are shown in Table 1. In each example, 12 eyes are used.
# Eye scratching inhibition rate=100−(number of eye scratchings with test compound)/(number of eye scratchings with control)×100
# [1] = system: allergic conjunctivitis models; assay: Ocular pruritus inhibition activity to allergic conjunctivitis models; conditions: for Eye scratching inhibition rate: 0.1% (w/v) instilled twice before ovalbumin, 30 minutes, 12 eyes
# Experimental: Aluminum hydroxide gel-adsorbed ovalbumin (20 μg/mL) was dissolved in a physiological saline, and the resulting solution was subconjunctivally injected into both eyes of a 4-week-old male Hartley guinea pig in 100-μL portions for active sensitization. On days 14, 16, 18, 21, 23 and 25 after the sensitization, a physiological saline containing 2.5% (w/v) ovalbumin was instilled into both eyes in 10 μL/one eye to induce allergic conjunctivitis. A physiological saline was used as a control.
# Five minutes and 15 minutes (twice in total) before the instilling of ovalbumin on days 16, 18, 21, 23 and 25 after the sensitization, a suspension of 0.1% (w/v) palmidrol in a physiological saline was instilled into both eyes of the guinea pig in 10 μL/one eye.
# The behavior of the guinea pig for 30 minutes after the instilling of ovalbumin on days 21, 23 and 25 after the sensitization were videotaped, and the ocular pruritus was evaluated by counting the number of eye scratchings in case of instilling palmidrol and a control. In each example, 12 eyes are used.
# [2] = system: platelet activating factor (PAF)-induced models; assay: Ocular pruritus inhibition activity to platelet activating factor-induced models; conditions: for Eye scratching inhibition rate: 8 eyes; for Number of eye scratchings in comparison with the controls (in words): instilled suspensions, extent depends approximately on concentration
# Experimental: The ocular pruritus inhibition activity to platelet activating factor (PAF)-induced models was examined using anandamide (test compound A), indometacin morpholinylamide (test compound B) and N-(benzo[d][1,3]dioxol-5-ylmethyl)-7-methoxy-2-oxo-8-penty loxy-1,2-dihydroquinoline-3-carboxamide (test compound C).
# Test compound A (50 mg/ml in EtOH) was suspended in a physiological saline at a concentration of 0.01% (w/v). Test compound B was suspended in a 1.0% Tween 80/physiological saline at a concentration of 0.001% or 0.01% (w/v). Test compound C was suspended in a 5.0% Tween 80/physiolosical saline at a concentration of 0.0001%, 0.001% or 0.01% (w/v). In this manner, the test compound suspensions were prepared.
# With respect to test compounds A and B, each of the test compound suspensions was instilled into both eyes of a 5-week-old male Hartley guinea pig in 10 μL/one eye. Ten minutes later, each of the test compound suspensions was instilled thereinto at the same concentration (twice in total). With respect to test compound C, the test compound suspension was instilled into both eyes of the 5-week-old male Hartley guinea pig in 10 μL/one eye.
# Subsequently, with respect to test compounds A and B, a physiological saline containing 0.1% (w/v) of the platelet activating factor was instilled in 10 μL/one eye into both eyes of the guinea pig after 5 minutes from the second instilling of the respective test compound suspensions. With respect to test compound C, the same physiological saline was instilled in 10 μL/one eye into both eyes of the guinea pig after 15 minutes from the instilling of the test compound suspension. In this manner, the eye scratching action was induced. As controls of test compounds A, B and C, a 2.0% ethanol/physiological saline, a physiological saline and a 5.0% Tween 80/physiological saline were used respectively.
# The behavior of the guinea pig after instilling the platelet activating factor was videotaped, and the ocular pruritus was evaluated for each eye by counting the number of actions of scratching the eye with the hind foot. The average value of the eye scratching inhibition rate for 30 minutes after instilling the platelet activating factor is shown in Table 3. In each example, 8 eyes are used.
# [3] = 0.1% (w/v) suspension instilled twice
# [4] = 0.5% (w/v) suspension instilled twice
# [5] = 0.01% (w/v) suspension instilled twice, 30 minutes after 0.1% PAF
compound,measurement,setting,value
"CCCCCCCCCCCCCCCC(=O)NCCO [Palmidrol, N-palmitoyl-ethanolamide]",Number of eye scratchings,histamine-induced models; [3],8.5 times
same,Eye scratching inhibition rate,histamine-induced models; [3],62.8%
same,Number of eye scratchings,histamine-induced models; [4],3.8 times
same,Eye scratching inhibition rate,histamine-induced models; [4],83.2%
same,Number of eye scratchings in comparison with the control (in words),"histamine-induced models; instilled 0.1% or 0.5%, extent depends on concentration",markedly decreased
same,Eye scratching inhibition rate,[1]; Day 21 after sensitization,41.5%
same,Eye scratching inhibition rate,[1]; Day 23 after sensitization,52.3%
same,Eye scratching inhibition rate,[1]; Day 25 after sensitization,51.7%
same,Eye scratching action in comparison with the control (in words),[1]; 0.1% instilled,significantly inhibited
"CCCCCOc1c(OC)ccc2cc(C(=O)NCc3ccc4c(c3)OCO4)c(=O)[nH]c12 [Test Compound C, N-(benzo[d][1,3]dioxol-5-ylmethyl)-7-methoxy-2-oxo-8-pentyloxy-1,2-dihydroquinoline-3-carboxamide]",Eye scratching inhibition rate,"[2]; 0.0001% (w/v) suspension instilled once, 15 minutes before 0.1% PAF, 30 minutes",22.7%
same,Eye scratching inhibition rate,"[2]; 0.001% (w/v) suspension instilled once, 15 minutes before 0.1% PAF, 30 minutes",34.3%
same,Eye scratching inhibition rate,"[2]; 0.01% (w/v) suspension instilled once, 15 minutes before 0.1% PAF, 30 minutes",44.2%
same,Number of eye scratchings in comparison with the controls (in words),[2],markedly decreased
"CCCCC/C=C\C/C=C\C/C=C\C/C=C\CCCC(=O)NCCO [Test compound A, anandamide]",Eye scratching inhibition rate,[2]; [5],40.9%
same,Number of eye scratchings in comparison with the controls (in words),[2],markedly decreased
"COc1ccc2c(c1)c(CC(=O)N1CCOCC1)c(C)n2C(=O)c1ccc(Cl)cc1 [Test compound B, indometacin morpholinylamide]",Eye scratching inhibition rate,"[2]; 0.001% (w/v) suspension instilled twice, 30 minutes after 0.1% PAF",38.7%
same,Eye scratching inhibition rate,[2]; [5],52.9%
same,Number of eye scratchings in comparison with the controls (in words),[2],markedly decreased
